Experimental data: ChEMBL document CHEMBL1201862, “PubChem BioAssay data set” (2004)
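Values below derive from 48-hour exposures of cells grown in 96-well plates, with endpoints linearly interpolated between the two concentrations bracketing the appropriate inhibition level. At the GI50, growth is halved.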 The source made the active and inactive calls. Cut-off read from the data, not from the text of the source: active = GI50 up to about 1.1 µM and inactive = higher.

Key:
Assay in all cases: DTP human tumour cell line panel, 48 h
T47D = tested on: T47D
DMS-114 = tested on: DMS-114
LXFL 529 = tested on: LXFL 529
XF498 = tested on: XF498
DMS-273 = tested on: DMS-273
RXF 631 = tested on: RXF 631
DLD-1 = tested on: DLD-1
HOP-18 = tested on: HOP-18
KM-20L2 = tested on: KM-20L2

SMILES	GI50 (T47D)	GI50 (DMS-114)	GI50 (DMS-273)	GI50 (DLD-1)	other results
C[N+]1([O-])[C@H]2CC(OC(=O)[C@H](CO)c3ccccc3)C[C@H]1[C@H]1O[C@H]12 (stereo partly specified)	> 100 µM (inactive)	–	–	–	–
Nc1ccccc1SCc1csc(-c2ccc(Cl)cc2)n1	5.07 µM (inactive)	–	–	–	–
COc1ccc(Nc2nc3ccc(C(F)(F)F)cc3nc2-c2ccccc2)cc1OC	–	38.7 µM (inactive)	32.4 µM (inactive)	30.5 µM (inactive)	GI50 (LXFL 529): 43.2 µM (inactive); GI50 (XF498): 49.1 µM (inactive); GI50 (RXF 631): 39.6 µM (inactive)
O=C1c2ccccc2C(=O)c2c1ccc(C(=O)O)c2-c1ccc2ccccc2c1	2.22 µM (inactive)	–	–	–	–
COc1ccc(NC(=S)N/N=C\c2ccc(NC(C)=O)cc2)cc1	> 100 µM (inactive)	–	–	–	–
CC(C)(C)/N=C\N(C=C(c1ccccc1)c1ccccc1)C1CCCCC1	–	19.2 µM (inactive)	46.6 µM (inactive)	23.1 µM (inactive)	GI50 (XF498): 16.6 µM (inactive); GI50 (HOP-18): 52.2 µM (inactive); GI50 (KM-20L2): 16.9 µM (inactive)
CCOC(=O)C1(Cc2c[nH]c3ccccc23)C(O)CCCN1C(C)=O (stereo unspecified)	> 100 µM (inactive)	–	–	–	–
Cn1cnc([N+](=O)[O-])c1Sc1nc2ccccc2[nH]1	–	8.26 µM (inactive)	1.91 µM (inactive)	5.6 µM (inactive)	GI50 (LXFL 529): 6.67 µM (inactive); GI50 (XF498): 3.65 µM (inactive); GI50 (HOP-18): 67.6 µM (inactive); GI50 (KM-20L2): 16.4 µM (inactive)
Cc1cc2cc3c(O)nc(O)nc3nc2cc1C	> 100 µM (inactive)	–	–	–	–
O=C(O)CCCN1CCCCC1	> 100 µM (inactive)	–	–	–	–
CC(O)c1cc2c(s1)C(=O)c1c(C(C)O)csc1C2=O (stereo unspecified)	0.167 µM (active)	–	–	–	–
O=C(CCN1CCCCC1)C(=Cc1ccccc1)C(=O)CCN1CCCCC1	–	2.77 µM (inactive)	> 100 µM (inactive)	20 µM (inactive)	GI50 (XF498): > 100 µM (inactive); GI50 (HOP-18): > 10 µM (inactive); GI50 (KM-20L2): > 100 µM (inactive)
O=C(O)Cc1ccccc1 [PHENYLACETIC ACID]	> 100 µM (inactive)	–	–	–	–
Cc1c(Cl)c(S(N)(=O)=O)cc2c1N=CNS2(=O)=O	> 100 µM (inactive)	–	–	–	–
O=C(NCCCC/N=c1/cccccc1NCCCCNC(=O)OCc1ccccc1)OCc1ccccc1	–	8.11 µM (inactive)	17.5 µM (inactive)	12.6 µM (inactive)	GI50 (XF498): 4.29 µM (inactive); GI50 (RXF 631): 13.3 µM (inactive); GI50 (KM-20L2): 11 µM (inactive)
Nn1c(S)nnc1C12CC3CC(CC(C3)C1)C2	> 100 µM (inactive)	–	–	–	–
N#CC(c1nc2ccccc2s1)c1nc(Cl)ncc1Br (stereo unspecified)	64.7 µM (inactive)	–	–	–	–
NC(=O)/N=C(\N)NC(=O)c1ccccc1	> 100 µM (inactive)	–	–	–	–
COc1ccc2nc3c([N+](=O)[O-])ccc(NCCCN(C)C)c3c(N)c2c1	1.92 µM (inactive)	–	–	–	–
CC(O[Si](c1ccccc1)(c1ccccc1)C(C)(C)C)[C@H](NC(=O)OC(C)(C)C)C(=O)O (stereo partly specified)	39.8 µM (inactive)	–	–	–	–
O=C(NC(C(F)(F)F)(C(F)(F)F)P(=O)(Cc1ccccc1)Cc1ccccc1)C(C(F)(F)F)C(F)(F)F	34.9 µM (inactive)	–	–	–	–
CC#CC#C/C(=C/C=CC(=O)OC)SC	> 100 µM (inactive)	–	–	–	–

SMILES	GI50 (T47D)	GI50 (DMS-114)	GI50 (DMS-273)	GI50 (DLD-1)	other results
CC(=O)OCC1OC(n2c3c(cc(C#N)c2=S)CCCCC3)C(OC(C)=O)C(OC(C)=O)C1OC(C)=O (stereo unspecified)	29.4 µM (inactive)	–	–	–	–
CC(C)c1ccc2c(c1)[C@@]1(C)CC[C@H](C)C(C)(C)C1CC2 (stereo partly specified)	26.1 µM (inactive)	–	–	–	–
Cc1ccc(OCC2=NN3C(=O)/C(=C\c4ccc([N+](=O)[O-])o4)SC3N2)cc1 (stereo unspecified)	2.17 µM (inactive)	–	–	–	–
O=[N+]([O-])c1sc2ccc(Cl)cc2c1Nc1ccc(Cl)cc1	> 100 µM (inactive)	–	–	–	–
N#CCCN(CCC#N)c1ccc(/C=C2\SC(=S)NC2=O)cc1	> 100 µM (inactive)	–	–	–	–
CCCCP(CCCC)(CCCC)=C(C(=O)OC)C(C(=O)OC)=C1SC(C(=O)OC)=C(C(=O)OC)S1	13.5 µM (inactive)	–	–	–	–
CCOC(=O)C(=O)CC(=O)C(Br)C(Br)c1ccc(Cl)cc1 (stereo unspecified)	–	43 µM (inactive)	70.5 µM (inactive)	18.3 µM (inactive)	GI50 (LXFL 529): 16.3 µM (inactive); GI50 (RXF 631): > 100 µM (inactive); GI50 (KM-20L2): > 100 µM (inactive)
O=C1c2ccccc2C(=O)c2oc(Br)cc21	1.73 µM (inactive)	–	–	–	–
Cc1c(-c2ccccc2)c(C#N)c2nnn(-c3cccc(Cl)c3)c(=O)n12	60.5 µM (inactive)	–	–	–	–
CC(C)=CC(=O)CC(=O)C(=O)Nc1ccc(Cl)c(Cl)c1	–	> 100 µM (inactive)	> 100 µM (inactive)	> 100 µM (inactive)	GI50 (LXFL 529): > 100 µM (inactive); GI50 (KM-20L2): > 100 µM (inactive)
O=C1c2ccccc2-c2ccc(NC(=O)C3CCCCC3C(=O)O)cc21 (stereo unspecified)	> 100 µM (inactive)	–	–	–	–
CC1CC(=O)Nc2ccccc2N1C(=O)C1CC1 (stereo unspecified)	> 100 µM (inactive)	–	–	–	–
COc1ccc(/C=N/NC(=O)O)cc1	> 100 µM (inactive)	–	–	–	–
CC1(C)O[C@@H](CCl)C[C@H](C#N)O1	–	> 100 µM (inactive)	> 100 µM (inactive)	> 100 µM (inactive)	GI50 (XF498): > 100 µM (inactive); GI50 (HOP-18): > 100 µM (inactive); GI50 (KM-20L2): > 100 µM (inactive)
CC(O)CNC(=O)C(C)Oc1ccc(OCC2CCCCC2)cc1 (stereo unspecified)	–	46.3 µM (inactive)	> 100 µM (inactive)	–	GI50 (LXFL 529): > 100 µM (inactive); GI50 (XF498): > 100 µM (inactive); GI50 (HOP-18): > 100 µM (inactive)
NC1CC(=O)c2c(Br)csc21 (stereo unspecified)	> 100 µM (inactive)	–	–	–	–
N#CC1(Nc2ccc(-c3ccc(NC4(C#N)CCCC4)cc3)cc2)CCCC1	> 100 µM (inactive)	–	–	–	–
OC(c1cc(C23CC4CC(CC(C4)C2)C3)nc2c(Cl)cc(Cl)cc12)C1CCCCN1 (stereo unspecified)	1.79 µM (inactive)	–	–	–	–
COc1cc2c(c(N)c1OC)C(=O)/C(=C/c1cc(C)c(O)c(C)c1)C2	> 100 µM (inactive)	–	–	–	–
CCOC(=O)CC(NC(=O)c1nc[nH]c1/N=N/N(C)C)C(=O)OCC (stereo unspecified)	–	> 100 µM (inactive)	> 100 µM (inactive)	> 100 µM (inactive)	GI50 (LXFL 529): > 100 µM (inactive)
Cn1ncc2c(Nc3ccc(Cl)cc3)c3ccccc3nc21	–	13.4 µM (inactive)	15.2 µM (inactive)	11.2 µM (inactive)	GI50 (LXFL 529): 18.6 µM (inactive); GI50 (XF498): > 10 µM (inactive); GI50 (RXF 631): 13.1 µM (inactive); GI50 (HOP-18): 22.3 µM (inactive)
C=C1C(=O)C2=CC1CCC(=O)C1(C)CCC(OC(C)=O)C(C)(C)C1CC2O (stereo unspecified)	3.74 µM (inactive)	–	–	–	–

SMILES	GI50 (T47D)	GI50 (DMS-114)	GI50 (DMS-273)	GI50 (DLD-1)	other results
COc1ccc2c(c1)[n+]([O-])c(C(=O)C/C(=N/NC(=O)c1ccccc1O)C(=O)Nc1ccc(Cl)c(C(F)(F)F)c1)c(C)[n+]2[O-]	–	71.8 µM (inactive)	49.9 µM (inactive)	37.4 µM (inactive)	GI50 (LXFL 529): 51.4 µM (inactive); GI50 (XF498): > 100 µM (inactive); GI50 (HOP-18): 32.6 µM (inactive); GI50 (KM-20L2): > 100 µM (inactive)
C[C@H]1CC[C@@H]2[C@@H](C)[C@H]3[C@H](C[C@H]4[C@@H]5CC=C6C[C@@H](O)CC[C@]6(C)[C@H]5CC[C@]34C)N2C1	86.9 µM (inactive)	–	–	–	–
CC(C)(C)c1ccc(-c2nnc(-c3cc(C#N)cc(-c4nnc(-c5ccc(C(C)(C)C)cc5)o4)c3)o2)cc1	> 100 µM (inactive)	–	–	–	–
O=C1c2ccccc2C(=O)N1CC#CCO	–	–	> 100 µM (inactive)	–	GI50 (LXFL 529): > 100 µM (inactive); GI50 (XF498): > 100 µM (inactive); GI50 (RXF 631): > 100 µM (inactive)
O=C(NCCCNCCCCNCCCNC(=O)c1cc(-c2ccccc2)nc2ccccc12)c1cc(-c2ccccc2)nc2ccccc12	2.63 µM (inactive)	–	–	–	–
O=P1(N(CCCl)CCCl)Oc2c(Cl)cc(Cl)c(Cl)c2Cc2c(Cl)c(Cl)cc(Cl)c2O1	> 100 µM (inactive)	–	–	–	–
O=C(O)C(/C=C/c1ccccc1)c1ccccc1 (stereo unspecified)	> 100 µM (inactive)	–	–	–	–
CC[C@H](C)N(CCN)C(=O)c1cc2ccccc2c(-c2ccccc2Cl)n1	–	13.9 µM (inactive)	13.6 µM (inactive)	–	GI50 (LXFL 529): 3.3 µM (inactive); GI50 (KM-20L2): 13.2 µM (inactive)
COc1cc(Oc2nc3ccc(C(F)(F)F)cc3nc2-c2ccccc2)cc(OC)c1OC	54.7 µM (inactive)	–	–	–	–
CCN(CC)CCC(=O)NC1c2ccccc2Oc2c(C)cccc21 (stereo unspecified)	–	> 100 µM (inactive)	> 100 µM (inactive)	> 100 µM (inactive)	GI50 (LXFL 529): > 100 µM (inactive); GI50 (XF498): > 100 µM (inactive)
COc1cc(OC)c(Oc2cccc(OC)c2OC)c(OC)c1	–	> 100 µM (inactive)	> 100 µM (inactive)	> 100 µM (inactive)	GI50 (LXFL 529): > 100 µM (inactive); GI50 (XF498): > 100 µM (inactive); GI50 (HOP-18): 29.5 µM (inactive); GI50 (KM-20L2): > 100 µM (inactive)
O=C1OCC/C1=N/O	–	> 100 µM (inactive)	> 100 µM (inactive)	> 100 µM (inactive)	GI50 (LXFL 529): > 100 µM (inactive); GI50 (HOP-18): > 100 µM (inactive); GI50 (KM-20L2): > 100 µM (inactive)
N#Cc1c(N)c2c(c(-c3ccccc3)c1-c1ccccc1)C(=O)N(O)C2=O	22.8 µM (inactive)	–	–	–	–
Cc1ccccc1NC(=O)C(=O)CC(=O)C1CCOC1=O (stereo unspecified)	–	> 100 µM (inactive)	> 100 µM (inactive)	> 100 µM (inactive)	GI50 (LXFL 529): > 100 µM (inactive); GI50 (XF498): > 100 µM (inactive); GI50 (HOP-18): 7.29 µM (inactive); GI50 (KM-20L2): > 100 µM (inactive)
O=C(O)CCC(=O)Nc1ccc2c(c1)S(=O)(=O)N(CC(=O)O)C2=O	> 100 µM (inactive)	–	–	–	–
CCOC(=O)/C(=C\c1ccc(N(CCC#N)CCC#N)cc1C)NC(=O)/C=C/c1ccccc1	–	> 100 µM (inactive)	> 100 µM (inactive)	> 100 µM (inactive)	GI50 (LXFL 529): > 100 µM (inactive); GI50 (XF498): > 100 µM (inactive); GI50 (KM-20L2): > 100 µM (inactive)
Fc1cccc(C2SCC3=Nc4ccccc4CN32)c1 (stereo unspecified)	57.3 µM (inactive)	–	–	–	–
COc1ccc(/C=C(\NC(=O)c2ccccc2)c2nc3ccccc3[nH]2)cc1OC	–	> 100 µM (inactive)	–	> 100 µM (inactive)	GI50 (LXFL 529): 76 µM (inactive); GI50 (XF498): > 100 µM (inactive); GI50 (RXF 631): > 100 µM (inactive); GI50 (HOP-18): > 100 µM (inactive); GI50 (KM-20L2): > 100 µM (inactive)
Cn1ccnc1C(c1nccn1C)C(C)(C)[N+](=O)[O-]	–	> 100 µM (inactive)	> 100 µM (inactive)	> 100 µM (inactive)	GI50 (XF498): > 100 µM (inactive); GI50 (RXF 631): > 100 µM (inactive)
CCN(CC)CC1CCCCN1CC(=O)N1c2cc(Cl)ccc2NC(=O)CC1C (stereo unspecified)	–	> 100 µM (inactive)	> 100 µM (inactive)	> 100 µM (inactive)	GI50 (LXFL 529): > 100 µM (inactive); GI50 (XF498): > 100 µM (inactive); GI50 (KM-20L2): > 100 µM (inactive)
COC(=O)/C(C#N)=C1\NC(=O)c2ccccc21	–	> 100 µM (inactive)	> 100 µM (inactive)	> 100 µM (inactive)	GI50 (LXFL 529): > 100 µM (inactive); GI50 (HOP-18): > 100 µM (inactive); GI50 (KM-20L2): > 100 µM (inactive)
